Assay results reported in paper PMC5816172 (Proceedings of the National Academy of Sciences of the …, 2018).

Test system: NLRP3 inflammasome
Test: NLRP3 inflammasome stimulation of J774A.1 macrophages
Assay type: cell-based, mouse
Details: J774A.1 (Fig. S7B), ACHP alone

N#Cc1c(C2CCNCC2)cc(-c2c(O)cccc2OCC2CC2)nc1N [ACHP, 2-Amino-6-[2-(cyclopropylmethoxy)-6-hydroxyphenyl]-4-(4-piperidinyl)-3-pyridinecarbonitrile, reference compound]
reduction of LPS/nigericin induction of IL-1β: 60%
